Measurements: ChEMBL document CHEMBL2321681, “Design, synthesis, and evaluation of imidazo[4,5-c]pyridin-4-one derivatives with dual activity at angiotensin II type 1 receptor and peroxisome proliferator-activated receptor-γ” (Bioorg Med Chem Lett, 2013)
In brackets after ≈: the same amount, converted by molar mass.

Key:
[1] = target: T1, Peroxisome proliferator-activated receptor gamma (Homo sapiens, UniProt P37231); assay: Partial agonist activity at human PPARgamma-LBD/Gal4 DNA binding domain by transactivation assay
T1 sequence (P37231 whole entry): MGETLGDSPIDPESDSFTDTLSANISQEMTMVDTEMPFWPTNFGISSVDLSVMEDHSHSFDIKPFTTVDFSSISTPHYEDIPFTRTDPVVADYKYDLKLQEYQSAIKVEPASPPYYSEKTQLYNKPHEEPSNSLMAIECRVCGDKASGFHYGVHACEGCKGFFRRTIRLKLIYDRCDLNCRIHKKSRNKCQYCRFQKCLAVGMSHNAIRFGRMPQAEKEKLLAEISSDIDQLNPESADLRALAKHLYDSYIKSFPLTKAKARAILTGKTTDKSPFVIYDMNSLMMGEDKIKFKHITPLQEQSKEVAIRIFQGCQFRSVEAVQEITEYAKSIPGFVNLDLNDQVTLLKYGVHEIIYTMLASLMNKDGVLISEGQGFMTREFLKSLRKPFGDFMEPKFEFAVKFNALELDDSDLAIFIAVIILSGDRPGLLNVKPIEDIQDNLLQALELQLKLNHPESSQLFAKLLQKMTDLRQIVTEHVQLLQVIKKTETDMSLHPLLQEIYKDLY

[2] = target: T2, Type-1 angiotensin II receptor (Homo sapiens, UniProt P30556)
T2 sequence (P30556 whole entry): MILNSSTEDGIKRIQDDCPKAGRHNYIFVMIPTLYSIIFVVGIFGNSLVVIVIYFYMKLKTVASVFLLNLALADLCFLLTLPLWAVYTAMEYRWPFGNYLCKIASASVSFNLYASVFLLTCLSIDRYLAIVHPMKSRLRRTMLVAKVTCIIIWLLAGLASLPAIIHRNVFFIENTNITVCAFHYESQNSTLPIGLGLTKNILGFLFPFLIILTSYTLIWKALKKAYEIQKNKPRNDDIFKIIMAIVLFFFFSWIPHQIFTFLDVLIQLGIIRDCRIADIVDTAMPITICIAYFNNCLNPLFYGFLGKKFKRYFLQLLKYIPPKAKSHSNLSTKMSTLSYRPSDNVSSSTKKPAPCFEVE

[3] = Permeability of the compound by PAMPA; type: ADME; conditions: read-out: permeability
[4] = Kinetic solubility of the compound in potassium phosphate buffer at pH 6.5; type: physicochemical; conditions: read-out: Kinetic_solubility
[5] = Octanol-buffer distribution co-efficient, log D of the compound by shake-flask method; type: physicochemical
[6] = Intrinsic clearance in human liver microsomes
Cytochrome P450 2D6 = Cytochrome P450 2D6 (Homo sapiens, UniProt P10635); assay: Inhibition of CYP2D6 (unknown origin); type: ADME
Cytochrome P450 3A4 = Cytochrome P450 3A4 (Homo sapiens, UniProt P08684); assay: Inhibition of CYP3A4 (unknown origin); type: ADME
[7] = target: T3, Peroxisome proliferator-activated receptor delta (Homo sapiens, UniProt Q03181); assay: Agonist activity at PPARbeta (unknown origin)
T3 sequence (Q03181 whole entry): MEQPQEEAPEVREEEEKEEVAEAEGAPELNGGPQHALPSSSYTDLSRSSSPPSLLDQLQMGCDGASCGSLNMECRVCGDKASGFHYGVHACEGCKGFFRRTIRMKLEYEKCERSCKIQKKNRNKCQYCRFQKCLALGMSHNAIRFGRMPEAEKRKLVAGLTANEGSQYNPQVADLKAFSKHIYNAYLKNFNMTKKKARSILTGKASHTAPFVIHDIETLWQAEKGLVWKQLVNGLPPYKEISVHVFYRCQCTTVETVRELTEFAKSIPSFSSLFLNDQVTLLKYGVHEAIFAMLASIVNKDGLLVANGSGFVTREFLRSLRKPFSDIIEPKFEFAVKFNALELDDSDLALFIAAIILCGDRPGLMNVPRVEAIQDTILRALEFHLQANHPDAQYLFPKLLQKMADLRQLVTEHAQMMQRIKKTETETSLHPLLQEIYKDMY

[8] = target: T4, Peroxisome proliferator-activated receptor alpha (Homo sapiens, UniProt Q07869); assay: Agonist activity at PPARalpha (unknown origin)
T4 sequence (Q07869 whole entry): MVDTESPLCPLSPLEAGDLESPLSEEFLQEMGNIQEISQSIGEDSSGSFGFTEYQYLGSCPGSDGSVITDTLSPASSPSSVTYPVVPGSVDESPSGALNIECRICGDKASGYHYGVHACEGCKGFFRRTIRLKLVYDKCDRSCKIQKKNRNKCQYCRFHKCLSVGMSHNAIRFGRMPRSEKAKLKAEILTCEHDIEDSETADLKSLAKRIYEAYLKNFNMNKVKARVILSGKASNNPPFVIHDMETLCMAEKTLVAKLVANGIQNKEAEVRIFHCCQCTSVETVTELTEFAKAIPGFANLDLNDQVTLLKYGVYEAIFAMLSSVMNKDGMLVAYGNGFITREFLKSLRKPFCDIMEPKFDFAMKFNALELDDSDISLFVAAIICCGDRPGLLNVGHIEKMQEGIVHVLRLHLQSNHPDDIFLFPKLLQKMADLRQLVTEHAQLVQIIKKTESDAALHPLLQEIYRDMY

Sequence of Cytochrome P450 3A4 (P08684 whole entry): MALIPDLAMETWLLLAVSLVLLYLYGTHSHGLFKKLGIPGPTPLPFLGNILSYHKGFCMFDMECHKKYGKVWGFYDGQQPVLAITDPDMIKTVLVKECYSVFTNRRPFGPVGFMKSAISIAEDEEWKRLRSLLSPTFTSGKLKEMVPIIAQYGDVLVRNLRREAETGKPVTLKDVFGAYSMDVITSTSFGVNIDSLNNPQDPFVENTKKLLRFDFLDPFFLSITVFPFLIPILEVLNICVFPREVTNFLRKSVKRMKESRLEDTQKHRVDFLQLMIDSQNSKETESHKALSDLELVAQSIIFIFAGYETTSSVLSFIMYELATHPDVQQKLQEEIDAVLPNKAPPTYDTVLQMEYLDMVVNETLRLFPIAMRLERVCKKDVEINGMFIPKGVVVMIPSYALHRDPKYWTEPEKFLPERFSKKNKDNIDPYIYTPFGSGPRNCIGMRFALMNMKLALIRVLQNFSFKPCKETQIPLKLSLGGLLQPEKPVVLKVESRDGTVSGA
Sequence of Cytochrome P450 2D6 (P10635 whole entry): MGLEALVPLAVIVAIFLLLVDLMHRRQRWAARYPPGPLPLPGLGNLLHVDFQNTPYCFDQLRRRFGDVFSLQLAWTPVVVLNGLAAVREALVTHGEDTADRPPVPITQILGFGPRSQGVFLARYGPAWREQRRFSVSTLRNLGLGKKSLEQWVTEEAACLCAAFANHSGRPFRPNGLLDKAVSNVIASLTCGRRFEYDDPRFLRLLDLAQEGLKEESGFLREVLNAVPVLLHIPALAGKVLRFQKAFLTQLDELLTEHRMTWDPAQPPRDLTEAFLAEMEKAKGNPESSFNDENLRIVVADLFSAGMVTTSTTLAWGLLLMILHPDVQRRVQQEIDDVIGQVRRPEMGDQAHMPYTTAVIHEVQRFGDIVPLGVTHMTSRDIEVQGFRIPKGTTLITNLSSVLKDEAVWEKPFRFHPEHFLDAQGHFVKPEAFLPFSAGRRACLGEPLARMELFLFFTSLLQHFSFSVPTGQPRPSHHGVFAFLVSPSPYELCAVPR

Compound	EC50 [1]	IC50 [2]	also measured
CCc1nc2ccn(CC(=O)OCc3ccccc3)c(=O)c2n1[C@H]1CCc2cc(-c3ccccc3-c3nnn[nH]3)ccc21	1.25 µM	0.0198 µM	–
CCc1nc2ccn(Cc3c(C)noc3C)c(=O)c2n1[C@H]1CCc2cc(-c3ccccc3-c3nnn[nH]3)ccc21	4.47 µM	0.0634 µM	–
CCc1nc2ccn(CC(C)C)c(=O)c2n1[C@H]1CCc2cc(-c3ccccc3-c3nnn[nH]3)ccc21	1.71 µM	0.0194 µM	–
CCc1nc2ccn(CC(=O)O)c(=O)c2n1[C@H]1CCc2cc(-c3ccccc3-c3nnn[nH]3)ccc21	> 100 µM	0.348 µM	–
CCc1nc2ccn(CC3CCCCC3)c(=O)c2n1[C@H]1CCc2cc(-c3ccccc3-c3nnn[nH]3)ccc21	0.942 µM	0.041 µM	–
CCc1nc2ccn(Cc3cccnc3)c(=O)c2n1[C@H]1CCc2cc(-c3ccccc3-c3nnn[nH]3)ccc21	3.64 µM	0.0452 µM	–
CCc1nc2ccn(Cc3ccccn3)c(=O)c2n1[C@H]1CCc2cc(-c3ccccc3-c3nnn[nH]3)ccc21	3.58 µM	0.0638 µM	–
CCc1nc2cc[nH]c(=O)c2n1[C@H]1CCc2cc(-c3ccccc3-c3nnn[nH]3)ccc21	> 100 µM	0.593 µM	–
CCc1nc2ccn(CC(=O)N(C)C)c(=O)c2n1[C@H]1CCc2cc(-c3ccccc3-c3nnn[nH]3)ccc21	> 100 µM	0.0244 µM	–
CCc1nc2ccn(Cc3ccncc3)c(=O)c2n1[C@H]1CCc2cc(-c3ccccc3-c3nnn[nH]3)ccc21	> 25 µM	0.25 µM	–

Stronger by EC50 [1], values ahead:

EC50 [1]	IC50 [2]	Compound	also measured
0.685 µM	0.0135 µM	CCc1nc2ccn(Cc3ccccc3C#N)c(=O)c2n1[C@H]1CCc2cc(-c3ccccc3-c3nnn[nH]3)ccc21	Papp [3]: 107 nm/s; solubility kinetic [4]: 11.7 µM (≈ 6.3 µg/mL); logD [5]: 1.7; microsomal CLint [6]: 14 µL/min/mg; inhibition (INH) (Cytochrome P450 2D6): 11%; inhibition (INH) (Cytochrome P450 3A4): 31%
0.159 µM	0.0674 µM	CCc1nc2ccn(Cc3cccc(F)c3)c(=O)c2n1[C@H]1CCc2cc(-c3ccccc3-c3nnn[nH]3)ccc21	–
0.292 µM	0.0127 µM	CCc1nc2ccn(Cc3ccccc3)c(=O)c2n1[C@H]1CCc2cc(-c3ccccc3-c3nnn[nH]3)ccc21	EC50 [7]: > 50 µM; EC50 [8]: > 50 µM
0.02 µM	0.0293 µM	CCc1nc2ccn(Cc3ccccc3OC(F)(F)F)c(=O)c2n1[C@H]1CCc2cc(-c3ccccc3-c3nnn[nH]3)ccc21	–
0.295 µM	0.007 µM	CCc1nc2c(C)cn(Cc3ccccc3C#N)c(=O)c2n1[C@H]1CCc2cc(-c3ccccc3-c3nnn[nH]3)ccc21	Papp [3]: 190 nm/s; solubility kinetic [4]: 5.2 µM (≈ 2.87 µg/mL); logD [5]: 2.5; microsomal CLint [6]: 20.7 µL/min/mg; inhibition (INH) (Cytochrome P450 2D6): 0%; inhibition (INH) (Cytochrome P450 3A4): 0%
0.108 µM	0.0369 µM	CCc1nc2ccn(Cc3cccc(C)c3)c(=O)c2n1[C@H]1CCc2cc(-c3ccccc3-c3nnn[nH]3)ccc21	–
0.449 µM	0.0816 µM	CCc1nc2ccn(Cc3cccc(C(F)(F)F)c3)c(=O)c2n1[C@H]1CCc2cc(-c3ccccc3-c3nnn[nH]3)ccc21	–
0.187 µM	0.0941 µM	CCc1nc2ccn(Cc3ccccc3C(F)(F)F)c(=O)c2n1[C@H]1CCc2cc(-c3ccccc3-c3nnn[nH]3)ccc21	–
0.103 µM	0.0377 µM	CCc1nc2ccn(Cc3ccccc3F)c(=O)c2n1[C@H]1CCc2cc(-c3ccccc3-c3nnn[nH]3)ccc21	–
0.097 µM	0.0051 µM	CCc1nc2ccn(Cc3ccccc3C)c(=O)c2n1[C@H]1CCc2cc(-c3ccccc3-c3nnn[nH]3)ccc21	Papp [3]: 36 nm/s; solubility kinetic [4]: 3.5 µM (≈ 1.85 µg/mL); logD [5]: 2.6; microsomal CLint [6]: 32.6 µL/min/mg; inhibition (INH) (Cytochrome P450 2D6): 6%; inhibition (INH) (Cytochrome P450 3A4): 14%
0.042 µM	0.0068 µM	CCc1nc2c(C)cn(Cc3ccccc3C)c(=O)c2n1[C@H]1CCc2cc(-c3ccccc3-c3nnn[nH]3)ccc21	Papp [3]: 70 nm/s; logD [5]: 2.9; microsomal CLint [6]: 37.5 µL/min/mg; inhibition (INH) (Cytochrome P450 2D6): 4.5%; inhibition (INH) (Cytochrome P450 3A4): 3.5%
